Reference: ChEMBL document CHEMBL4819034, “Tricyclic-Carbocyclic RORγt Inverse Agonists-Discovery of BMS-986313” (J Med Chem, 2021)
pEC50: −log10 of the molar value.

Biological target: T1, Nuclear receptor ROR-alpha (Homo sapiens, UniProt P35398)
T1 sequence (P35398 whole entry): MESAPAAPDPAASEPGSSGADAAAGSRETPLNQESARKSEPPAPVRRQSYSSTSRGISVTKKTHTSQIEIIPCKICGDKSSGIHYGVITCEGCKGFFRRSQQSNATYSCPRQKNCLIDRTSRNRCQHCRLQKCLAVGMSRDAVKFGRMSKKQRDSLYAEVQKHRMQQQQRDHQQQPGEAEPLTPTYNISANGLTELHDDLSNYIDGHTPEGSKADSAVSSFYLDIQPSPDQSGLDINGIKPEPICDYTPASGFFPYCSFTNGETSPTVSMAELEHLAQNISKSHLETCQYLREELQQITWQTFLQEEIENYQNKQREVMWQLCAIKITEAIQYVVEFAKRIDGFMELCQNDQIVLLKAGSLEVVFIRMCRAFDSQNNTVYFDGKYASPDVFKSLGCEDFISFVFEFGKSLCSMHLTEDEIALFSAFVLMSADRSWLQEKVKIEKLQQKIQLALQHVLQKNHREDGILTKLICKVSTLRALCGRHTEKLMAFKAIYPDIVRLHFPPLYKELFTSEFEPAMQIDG
Test: Inverse agonist activity at Gal4-fused RORalpha (unknown origin)

CC(C)(O)C(=O)N[C@@H]1CC[C@@]2(S(=O)(=O)c3ccc(F)cc3)c3ccc(C(F)(C(F)(F)F)C(F)(F)F)cc3CC[C@@H]12
pEC50: < 5.00
